Values belong to the compound of their own block, whether it stands above or below them. Activity calls are given as the source filed them. The calls are words filed in the database; no cut-off is given here.
Tests used:
[1] = Inhibition of TNF-alpha induced ICAM-1 protein expression in HUVEC cells; type: functional, cell-based; conditions: Homo sapiens
[2] = biological target: T1, Polyunsaturated fatty acid lipoxygenase ALOX15 (Homo sapiens, UniProt P16050); experiment: Inhibition of LOX-15 (unknown origin)
T1 sequence (P16050 whole entry): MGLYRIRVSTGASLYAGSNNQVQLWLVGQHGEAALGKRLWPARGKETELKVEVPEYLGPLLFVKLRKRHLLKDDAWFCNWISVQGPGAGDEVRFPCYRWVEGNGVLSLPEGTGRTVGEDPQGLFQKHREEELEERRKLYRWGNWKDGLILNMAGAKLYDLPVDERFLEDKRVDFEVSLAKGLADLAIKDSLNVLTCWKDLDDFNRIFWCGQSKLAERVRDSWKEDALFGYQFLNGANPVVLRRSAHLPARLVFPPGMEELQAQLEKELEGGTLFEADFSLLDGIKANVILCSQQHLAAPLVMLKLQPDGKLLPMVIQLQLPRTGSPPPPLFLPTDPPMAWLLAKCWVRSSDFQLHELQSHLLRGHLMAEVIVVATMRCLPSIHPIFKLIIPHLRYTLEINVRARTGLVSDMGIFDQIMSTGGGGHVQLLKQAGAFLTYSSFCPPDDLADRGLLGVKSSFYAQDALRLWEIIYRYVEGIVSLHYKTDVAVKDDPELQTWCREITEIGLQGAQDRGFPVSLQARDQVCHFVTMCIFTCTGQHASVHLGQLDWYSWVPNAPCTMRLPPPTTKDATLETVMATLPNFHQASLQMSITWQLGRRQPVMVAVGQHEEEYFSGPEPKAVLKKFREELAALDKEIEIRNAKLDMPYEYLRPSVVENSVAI

RAW264.7 [3] = experiment: Cytotoxicity against mouse RAW264.7 cells assessed as reduction in cell viability at 1 to 20 uM incubated for 24 hrs by MTT assay; type: toxicity, cell-based; conditions: raw264.7, 24 h, dose 1-20 µM
RAW264.7 [4] = experiment: Antiinflammatory activity in LPS-induced mouse RAW264.7 cells assessed as inhibition of NO production at 1 to 20 uM pretreated for 1 hr followed by LPS stimulation and measured after 23 hrs by Griess method; type: functional, cell-based; conditions: dose 1-20 µM, time 24.0 hrs
RAW264.7 [5] = experiment: Antiinflammatory activity in LPS-induced mouse RAW264.7 cells assessed as inhibition of NO production pretreated for 1 hr followed by LPS stimulation and measured after 23 hrs by Griess method; type: functional, cell-based
RAW264.7 [6] = experiment: Antiinflammatory activity in LPS-induced mouse RAW264.7 cells assessed as inhibition of TNF-alpha production at 20 uM pretreated for 1 hr followed by LPS stimulation and measured after 24 hrs by ELISA; type: functional, cell-based; conditions: time 25.0 hrs
RAW264.7 [7] = experiment: Antiinflammatory activity in LPS-induced mouse RAW264.7 cells assessed as inhibition of IL-6 production at 20 uM pretreated for 1 hr followed by LPS stimulation and measured after 24 hrs by ELISA; type: functional, cell-based; conditions: time 25.0 hrs
RAW264.7 [8] = experiment: Antiinflammatory activity in LPS-induced mouse RAW264.7 cells assessed as inhibition of TNF-alpha production pretreated for 1 hr followed by LPS stimulation and measured after 24 hrs by ELISA; type: functional, cell-based; conditions: dose 1-10 µM, time 25.0 hrs
RAW264.7 [9] = experiment: Antiinflammatory activity in LPS-induced mouse RAW264.7 cells assessed as inhibition of IL-6 production pretreated for 1 hr followed by LPS stimulation and measured after 24 hrs by ELISA; type: functional, cell-based; conditions: dose 1-10 µM, time 25.0 hrs
RAW264.7 [10] = experiment: Antiinflammatory activity in LPS-induced mouse RAW264.7 cells assessed as increase in IL-10 production pretreated for 1 hr followed by LPS stimulation and measured after 24 hrs by ELISA; type: functional, cell-based; conditions: dose 1-10 µM, time 25.0 hrs
RAW264.7 [11] = experiment: Antiinflammatory activity in LPS-induced mouse RAW264.7 cells assessed as reduction in COX-2 protein expression pretreated for 1 hr followed by LPS stimulation and measured after 24 hrs by Western blot analysis; type: functional, cell-based; conditions: dose 10-20 µM, time 25.0 hrs
RAW264.7 [12] = experiment: Antiinflammatory activity in LPS-induced mouse RAW264.7 cells assessed as reduction in iNOS protein expression pretreated for 1 hr followed by LPS stimulation and measured after 24 hrs by Western blot analysis; type: functional, cell-based; conditions: dose 10-20 µM, time 25.0 hrs
RAW264.7 [13] = experiment: Inhibition of LPS-induced NF-kappaB activation in mouse RAW264.7 cells assessed as inhibition of p65 phosphorylation pretreated for 1 hr followed by LPS stimulation and measured after 24 hrs by Western blot analysis; type: cell-based; conditions: dose 10-20 µM, time 25.0 hrs
RAW264.7 [14] = experiment: Effect on NF-kappaB p65 protein expression in LPS-induced mouse RAW264.7 cells at 10 to 20 uM pretreated for 1 hr followed by LPS stimulation and measured after 24 hrs by Western blot analysis; type: functional, cell-based; conditions: dose 10-20 µM, time 25.0 hrs
RAW264.7 [15] = experiment: Inhibition of LPS-induced NF-kappaB activation in mouse RAW264.7 cells assessed as reduction in nuclear translocation pretreated for 1 hr followed by LPS stimulation and measured after 24 hrs by immunofluorescence staining based fluorescence microscopic analysis; type: cell-based; conditions: dose 10-20 µM, time 25.0 hrs

IC50 [1]: 20 µM
SMILES: COc1ccc(N/N=C2\C(=O)N(CCCn3cncn3)c3ccc(Br)cc32)cc1

IC50 [2]: 1.58 µM
SMILES: CN(C)c1ccc(/C=C/C(=O)c2cccc(-n3cc(CN4C(=O)C(=O)c5ccccc54)nn3)c2)cc1

IC50 (RAW264.7 [5]): 3.13 µM
SMILES: C=C1CC[C@H]2C(C)(C)CCC[C@]2(C)[C@H]1C/C=C(/C=O)CC(=O)OCc1cn(CCN2C(=O)C(=O)c3ccccc32)nn1
Activity (RAW264.7 [3]): Non-Toxic
Activity (RAW264.7 [4]): Active
Activity (RAW264.7 [6]): Active
Activity (RAW264.7 [7]): Active
Activity (RAW264.7 [8]): Dose-Dependent Effect
Activity (RAW264.7 [9]): Dose-Dependent Effect
Activity (RAW264.7 [10]): Dose-Dependent Effect
Activity (RAW264.7 [11]): Dose-Dependent Effect
Activity (RAW264.7 [12]): Dose-Dependent Effect
inhibition (RAW264.7 [13]): Dose-Dependent Effect
Activity (RAW264.7 [14]): inactive
inhibition (RAW264.7 [15]): Dose-Dependent Effect
